From ChEMBL document CHEMBL3853265 (Medchemcomm, 2016)

Assays:
[1] = biological target: T1, Solute carrier family 22 member 12 (Homo sapiens, UniProt Q96S37); assay: Inhibition of human C-terminal eGFP-tagged URAT1 long isoform expressed in CHO cells assessed as decrease in [14C]-uric acid uptake preincubated for 15 mins followed by [14C]-uric acid addition and incubated in dark for 3 hrs by scintillation counting method; format: cell-based
T1 sequence (Q96S37 whole entry): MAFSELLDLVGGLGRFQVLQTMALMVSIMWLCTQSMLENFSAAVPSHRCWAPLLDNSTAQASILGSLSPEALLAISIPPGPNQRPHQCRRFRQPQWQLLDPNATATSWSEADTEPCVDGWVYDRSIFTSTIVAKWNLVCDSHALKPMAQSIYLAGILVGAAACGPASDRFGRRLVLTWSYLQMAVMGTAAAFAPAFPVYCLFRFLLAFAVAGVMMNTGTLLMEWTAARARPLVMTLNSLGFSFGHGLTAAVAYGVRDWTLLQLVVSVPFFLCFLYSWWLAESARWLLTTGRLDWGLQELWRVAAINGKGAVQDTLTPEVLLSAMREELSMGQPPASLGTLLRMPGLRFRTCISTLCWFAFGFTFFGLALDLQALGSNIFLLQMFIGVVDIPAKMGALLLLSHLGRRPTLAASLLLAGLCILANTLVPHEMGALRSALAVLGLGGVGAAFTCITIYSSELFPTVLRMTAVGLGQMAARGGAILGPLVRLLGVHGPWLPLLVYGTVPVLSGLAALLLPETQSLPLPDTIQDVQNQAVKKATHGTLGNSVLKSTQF

CYP2C9 = CYP2C9 (Homo sapiens, UniProt P11712); assay: Inhibition of CYP2C9 (unknown origin) at 3 uM relative to control; format: ADME
[2] = Octanol-water partition co-efficient, log D of the compound by shake flask method; format: physicochemical
[3] = Intrinsic clearance in human liver microsomes; format: ADME; conditions: read-out: CLH
[4] = Dissociation constant, pKa of the compound; format: physicochemical

CYP2C9, sequence (P11712 whole entry): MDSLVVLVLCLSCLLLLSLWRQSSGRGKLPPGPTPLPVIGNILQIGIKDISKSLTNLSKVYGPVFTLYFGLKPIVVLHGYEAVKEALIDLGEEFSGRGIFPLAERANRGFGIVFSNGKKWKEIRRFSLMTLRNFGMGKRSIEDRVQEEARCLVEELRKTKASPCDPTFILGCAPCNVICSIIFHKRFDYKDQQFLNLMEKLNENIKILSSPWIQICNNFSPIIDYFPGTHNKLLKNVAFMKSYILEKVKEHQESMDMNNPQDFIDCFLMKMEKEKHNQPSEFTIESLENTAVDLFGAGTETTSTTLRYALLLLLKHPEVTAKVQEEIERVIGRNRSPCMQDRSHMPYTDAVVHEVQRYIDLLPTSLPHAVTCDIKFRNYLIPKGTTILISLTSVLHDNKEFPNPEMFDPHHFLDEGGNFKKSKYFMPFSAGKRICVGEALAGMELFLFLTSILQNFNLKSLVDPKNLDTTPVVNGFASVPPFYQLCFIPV

IC50 [1]	inhibition at 3 µM (CYP2C9)	logD [2]	microsomal CLint [3]	pKa [4]	SMILES
111 nM	–	–	–	–	N#Cc1cc(Cl)ccc1NS(=O)(=O)c1ccccc1C(F)(F)F
89 nM	18%	1.3	< 8 µL/min/mg	–	COc1cncc(NS(=O)(=O)c2ccccc2C(F)(F)F)c1
484 nM	–	–	–	–	O=S(=O)(Nc1ccc(F)c(C(F)(F)F)c1)c1ccccc1C(F)(F)F
18 nM	76%	2.3	< 12 µL/min/mg	5.8	N#Cc1cc(NS(=O)(=O)c2ccccc2C(F)(F)F)ccc1Cl
3920 nM	–	–	–	–	COc1ncccc1NS(=O)(=O)c1ccccc1C(F)(F)F
3610 nM	15%	2.4	–	–	O=S(=O)(Nc1ccccc1F)c1ccccc1C(F)(F)F
1030 nM	–	–	–	–	Cc1ccc(NS(=O)(=O)c2ccccc2C(F)(F)F)cn1
1170 nM	–	–	–	–	COc1ccc(NS(=O)(=O)c2ccccc2C(F)(F)F)cn1
187 nM	–	–	–	–	N#Cc1ccc(Cl)cc1NS(=O)(=O)c1ccccc1C(F)(F)F
> 10000 nM	–	–	–	–	COc1ccncc1NS(=O)(=O)c1ccccc1C(F)(F)F
81 nM	–	–	–	–	N#Cc1cc(NS(=O)(=O)c2ccccc2Cl)ccc1Cl
616 nM	11%	0.8	19 µL/min/mg	–	N#Cc1ccccc1NS(=O)(=O)c1ccccc1C(F)(F)F
127 nM	–	–	–	–	N#Cc1cc(NS(=O)(=O)c2ccccc2C#N)ccc1Cl
183 nM	–	–	–	–	Cc1ccccc1S(=O)(=O)Nc1ccc(Cl)c(C#N)c1
119 nM	–	–	–	–	N#Cc1ccc(NS(=O)(=O)c2ccccc2C(F)(F)F)cc1
20 nM	–	–	–	–	N#Cc1cc(NS(=O)(=O)c2ccccc2OC(F)(F)F)ccc1Cl
71 nM	–	–	–	–	N#Cc1ccc(Cl)c(NS(=O)(=O)c2ccccc2C(F)(F)F)c1
1970 nM	–	–	–	–	O=S(=O)(Nc1ccc(F)c(F)c1)c1ccccc1C(F)(F)F
> 10000 nM	–	–	–	–	Cc1ccncc1NS(=O)(=O)c1ccccc1C(F)(F)F
1970 nM	–	–	–	–	O=S(=O)(Nc1ccccc1OC(F)F)c1ccccc1C(F)(F)F
1480 nM	81%	3.9	55 µL/min/mg	–	O=S(=O)(Nc1cccc(OC(F)(F)F)c1)c1ccccc1C(F)(F)F
166 nM	28%	1.9	< 8 µL/min/mg	–	N#Cc1cccc(NS(=O)(=O)c2ccccc2C(F)(F)F)c1
7 nM	39%	2.5	153 µL/min/mg	–	O=S(=O)(Nc1cnc2ccccc2c1)c1ccccc1C(F)(F)F
32 nM	86%	2	18 µL/min/mg	5.1	N#Cc1cc(NS(=O)(=O)c2ccccc2C(F)(F)F)ccc1C(F)(F)F
23 nM	86%	1	30 µL/min/mg	–	N#Cc1c(Cl)cccc1NS(=O)(=O)c1ccccc1C(F)(F)F
39 nM	82%	1.1	14 µL/min/mg	–	N#Cc1ccc(NS(=O)(=O)c2ccccc2C(F)(F)F)c(Cl)c1
185 nM	–	–	–	–	Cc1cncc(NS(=O)(=O)c2ccccc2C(F)(F)F)c1
35 nM	38%	1.6	14 µL/min/mg	5.3	O=S(=O)(Nc1cncc(Br)c1)c1ccccc1C(F)(F)F

SMILES	IC50 [1]	inhibition at 3 µM (CYP2C9)	logD [2]	microsomal CLint [3]	pKa [4]
N#Cc1ccc(NS(=O)(=O)c2ccccc2C(F)(F)F)cc1C(F)(F)F	29 nM	61%	1.8	< 12 µL/min/mg	–
N#Cc1ccc(NS(=O)(=O)c2ccccc2C(F)(F)F)cc1Cl	18 nM	92%	1.8	11 µL/min/mg	5.1
COc1ccccc1S(=O)(=O)Nc1ccc(C#N)c(Cl)c1	199 nM	–	–	–	–
N#Cc1ccc(NS(=O)(=O)c2ccccc2C#N)cc1Cl	156 nM	–	–	–	–
N#Cc1ccc(NS(=O)(=O)c2ccccc2Cl)cc1Cl	81 nM	–	–	–	–
Cc1ccccc1S(=O)(=O)Nc1ccc(C#N)c(Cl)c1	89 nM	–	–	–	–
